Measurements as given in PMC5746060, “General and Modular Strategy for Designing Potent, Selective, and Pharmacologically Compliant Inhibitors of Rhomboid Proteases” (Cell Chemical Biology, 2017).
pIC50: −log10 of the molar value. Starred links: 1 amine or outer side, 2 acyl side, 3 side chain; linkers in the order of their positions; H or OH if unused. Non-standard residues stand in square brackets, D forms with d. Residues, ends and D or L forms follow the SMILES beside them. *: point of attachment. NH(4-phenylbutyl) = c1ccc(CCCCN*)cc1; X1 = C[C@H](N[*:1])C(=O)C(=O)[*:2]; NHPhenethyl = c1ccc(CCN*)cc1

Experiments:
VcROM = experiment: activity-based probe competition assay, rhomboid panel; format: biochemical, Vibrio cholerae; details: 50 μM and 0.5 μM; outcompeted the ABP even at 500 nM
Description: (§1) Any enzyme inhibitors to be used as specific tools for cell biology or as starting points for drug development must show sufficient level of selectivity toward their intended target. This is particularly important for compounds that react with the catalytic nucleophile common to many serine hydrolases. […] To map the selectivity of peptidyl ketoamides more objectively and widely, we employed activity-based probe (ABP) competition assays that enable a more general and substrate-independent measurement of inhibitory potency, because they rely solely on the competition between a fluorescently labeled activity-based probe and the tested inhibitor ([Nguyen et al., 2015], [Serim et al., 2012]). […]
(§2) Figure 5 Selectivity of Peptidyl Ketoamides (A) Selectivity of compounds 9, 10, and 11 for nine rhomboid proteases was profiled using activity-based probe competition assay at 50 μM and 0.5 μM concentration. […] (B) Selectivity of compounds 9, 10, and 11 against human serine hydrolases was analyzed using EnPlex as described ([Bachovchin et al., 2014]).
(§3) For inhibitor selectivity profiling against rhomboid proteases ([Wolf et al., 2015]), 400 ng of a purified protein preparation of E. coli GlpG was diluted in 30 μL of reaction buffer (20 mM HEPES, pH 7.4, with 0.05% (w/v) DDM). […] Gels were scanned on a Typhoon Trio+ and analyzed using ImageJ. […]

[1] = tested on: about 100 human serine hydrolases; experiment: EnPlex multiplex ABP competition profiling; format: biochemical; details: concentration range where the ketoamides inhibit rhomboid proteases
Procedure: Figure 5 Selectivity of Peptidyl Ketoamides (A) Selectivity of compounds 9, 10, and 11 for nine rhomboid proteases was profiled using activity-based probe competition assay at 50 μM and 0.5 μM concentration. The upper limit of enzyme concentration was 0.4 μM. (B) Selectivity of compounds 9, 10, and 11 against human serine hydrolases was analyzed using EnPlex as described ([Bachovchin et al., 2014]).
We next examined peptidyl ketoamides for their possible off-target effects on other serine proteases. To get a representative picture of the selectivity of peptidyl ketoamides, we employed a recently developed EnPlex technology, which allows multiplex analysis of ABP competition with about 100 human serine hydrolases, mostly proteases ([Bachovchin et al., 2014]).
For inhibitor selectivity profiling against rhomboid proteases ([Wolf et al., 2015]), 400 ng of a purified protein preparation of E. coli GlpG was diluted in 30 μL of reaction buffer (20 mM HEPES, pH 7.4, with 0.05% (w/v) DDM). For other rhomboids, amounts were taken that gave similar labeling intensity during profiling. Rhomboids were incubated for 30 min at room temperature with the indicated concentration of compound, 100 μM DCI as positive control, or an equal volume of DMSO as negative control. Next, TAMRA-FP serine hydrolase probe (Thermo Fisher #88318) was added to a final concentration of 1 ìM and incubated for 2 h at 37°C in the dark. The reaction was stopped by addition of 4× Laemmli buffer and the reaction mixture was resolved on 15% SDS-PAGE. Gels were scanned on a Typhoon Trio+ and analyzed using ImageJ. The intensity of each rhomboid protease band calculated by ImageJ was normalized against its corresponding DMSO-treated counterpart (100% activity) to indicate the residual activity left after inhibition. The remaining activity was used to calculate the percentage of inhibition depicted in the heatmap. Selectivity profiles against human serine hydrolases were determined by EnPlex as described previously ([Bachovchin et al., 2014]).

[2] = biological target: T1, Escherichia coli rhomboid GlpG (Escherichia coli, UniProt P09391); experiment: in vitro GlpG inhibition assay with fluorogenic transmembrane peptide substrate (apparent IC50); format: biochemical
T1 construct: made in house; host or cells: E. coli C41(DE3)
T1 sequence (P09391 whole entry): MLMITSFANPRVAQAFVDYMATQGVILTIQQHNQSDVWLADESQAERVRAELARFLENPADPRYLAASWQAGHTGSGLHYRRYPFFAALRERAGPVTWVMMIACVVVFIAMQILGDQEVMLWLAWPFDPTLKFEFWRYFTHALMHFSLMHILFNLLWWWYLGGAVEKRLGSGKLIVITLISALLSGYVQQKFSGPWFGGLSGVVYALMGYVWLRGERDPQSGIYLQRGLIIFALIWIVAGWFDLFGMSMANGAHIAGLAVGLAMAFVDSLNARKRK
Description: To gain insight into these preferences and their possible interactions, we have generated tetra- and pentapeptidyl chloromethylketones (CMK or cmk henceforth) harboring amino acids preferred in positions P5 to P1 by the Escherichia coli rhomboid GlpG (GlpG henceforth), using the sequence background of the Providencia TatA ([Stevenson et al., 2007]), represented by the parent compound Ac-IATA-cmk. We measured the inhibitory properties of this series of compounds using a newly developed in vitro assay employing a fluorogenic transmembrane peptide substrate ([Ticha et al., 2017]) that faithfully represents a native rhomboid substrate.
Figure 1 The Potency of Substrate-Derived Inhibitors Can be Improved by Modifying the Amino acid Sequence of the P5 to P1 Region (A) The parent inhibitor Ac-IATA-cmk was modified by introducing strongly preferred amino acids ([Zoll et al., 2014]) into the P4, P3, P2, and P5 positions to yield the listed compounds. Their apparent IC50 values were measured with 1 hr preincubation using 10 μM fluorogenic substrate KSp35 and 0.05% (w/v) DDM. The reported values are best-fit means with SD representative of 2–3 measurements. (B) The sequence-optimized peptidyl chloromethylketones were soaked into the native crystals of GlpG and structures of the complexes were solved by X-ray diffraction (for statistics, see Table S1). […] Note that in the Ac-RVRHA-cmk structure (right), the side chain of the Arg residue in the P5 position of the inhibitor has not been modeled due to poor or missing electron density peaks. (C) Interactions of RVRHA-cmk with GlpG were analyzed by Ligplot+ ([Laskowski and Swindells, 2011]). Ligands are shown as thick sticks with carbons in green, proteins as thin sticks with carbons in gray, hydrogen bonds as yellow dashed lines, and amino acids involved in van der Waals contacts are highlighted as transparent surfaces. The inhibitor forms covalent bonds with S201 and H254 via the chloromethylketone warhead, and it hydrogen bonds with the backbone of residues 196–198 from the L3 loop and residues 248–250 from the L5 loop. van der Waals contacts with the inhibitor are formed by the residues from the L3 loop of GlpG, by S193 and Q189 from TMD3, and by F146 and M120 from the L1 loop that pack against the Val side chain of the P4 position of the inhibitor, as observed previously ([Zoll et al., 2014]). (D) The conformations of peptide inhibitors bound to the active site of GlpG were compared by performing structural alignment of the complexes of VRHAcmk (PDB: 5MT7), RVRHAcmk (PDB: 5MT8), IATAcmk (PDB: 4QO2), and VRMAcho (PDB: 5F5B) in PyMOL ([Schrodinger, 2012]). […] The backbone of the ligands in all complexes has virtually identical conformation with the exception of the distortion of the oxyanion by the chloromethylketone, and the biggest differences are found in the conformation of the P2 side chain, which is not surprising, because almost any side chain can be accommodated in this position ([Zoll et al., 2014]). TEXT PRINTED IN THE PICTURE: (A) AcIATAcmk: IC50 (μM): 213 | (A) AcVATAcmk: IC50 (μM): 450 | (A) AcIAHAcmk: IC50 (μM): 200 | (A) AcIRTAcmk: IC50 (μM): 84 | (A) AcVRHAcmk: IC50 (μM): 27 | (A) AcRVRHAcmk: IC50 (μM): 8
Figure 2 A Screen of Electrophilic Warheads for the Inhibition of Rhomboid Proteases The optimized parent sequence Ac-RVRHA was linked to electrophilic warheads commonly used for targeting serine proteases (reviewed in [Hedstrom, 2002], [Walker and Lynas, 2001]). The apparent IC50 values of the compounds were measured in 0.05% DDM using 10 μM substrate KSp35 ([Ticha et al., 2017]) with 1 hr preincubation. Given are the mean values of 2–3 measurements. […]

MjROM = experiment: activity-based probe competition assay, rhomboid panel; format: biochemical, Methanocaldococcus jannaschii; details: 50 μM and 0.5 μM; outcompeted the ABP even at 500 nM
Description: as §1, §2, §3

Compound	competition with ABP labeling of VcROM (VcROM)	inhibition of human serine hydrolases (EnPlex selectivity profile) [1]	pIC50 ([2]; 1 hr preincubation, 10 μM fluorogenic substrate KSp35, 0.05% (w/v) DDM)	competition with ABP labeling of MjROM (MjROM)	fold lower IC50 than the parent compound 1 ([2]; ratio of apparent IC50 values)
CC(=O)N[C@@H](CCCNC(=N)N)C(=O)N[C@H](C(=O)N[C@@H](CCCNC(=N)N)C(=O)N[C@@H](Cc1c[nH]cn1)C(=O)N[C@@H](C)C(=O)C(=O)NCCc1ccccc1)C(C)C [compound 9, Ac-RVRHA-CONH-phenylethyl] (Ac-RVRH[X1]-NHPhenethyl)	potently competed	fail to inhibit most of the tested human serine hydrolases	6.36	potently competed	
CC(=O)N[C@@H](CCCNC(=N)N)C(=O)N[C@H](C(=O)N[C@@H](CCCNC(=N)N)C(=O)N[C@@H](Cc1c[nH]cn1)C(=O)N[C@@H](C)C(=O)C(=O)NCCCCc1ccccc1)C(C)C [compound 11, Ac-RVRHA-CONH-phenylbutyl] (Ac-RVRH[X1]-{NH(4-phenylbutyl)})	potently competed	fail to inhibit most of the tested human serine hydrolases		potently competed	about 1,000 fold
